Earlier results in patent US20230165862A1, “CANCER THERAPY USING 3,5-DISUBSTITUTED BENZENE ALKYNYL COMPOUND AND MEK INHIBITOR” (TAIHO PHARMACEUTICAL CO., LTD., priority 2020, published 2023).
Blank lines part the entries; values can stand above or below the compound they belong to.

Experiments:
[1] = human; 30 mg or more per dose twice daily
[2] = human; steady-state PK, dose of 40 mg in Stage 1 (21/7), once daily
[3] = human; 0.5 mg or more per dose once daily

- Time a blood concentration of 18.45 ng/mL (corresponds to 100 nM) is achieved [1]: more than 8 hours
SMILES: Cn1cnc2c(F)c(Nc3ccc(Br)cc3F)c(C(=O)NOCCO)cc21 [Binimetinib, 5-[(4-bromofluorophenyl)amino]-4-fluoro-N-(2-hydroxyethoxy)-1-methyl-1H-benzimidazole-6-carboxamide]

- Time a concentration higher than 53 ng/mL (corresponds to 100 nM) is achieved [2]: 14 h
SMILES: O=C(c1ccc(F)c(F)c1Nc1ccc(I)cc1F)N1CC(O)([C@@H]2CCCCN2)C1 [Cobimetinib, [3,4-difluoro-2-[(2-fluoro-4-iodophenyl)amino]phenyl][3-hydroxy-3-[(2S)-2-piperidinyl]-1-azetidinyl]methanone]

- Time a blood concentration of 1.3 ng/mL (corresponds to 10 nM) is achieved [3]: ≥ 24 h
SMILES: CC(=O)Nc1cccc(-n2c(=O)n(C3CC3)c(=O)c3c(Nc4ccc(I)cc4F)n(C)c(=O)c(C)c32)c1 [Trametinib, N-(3-{3-cyclopropyl-5-[(2-fluoro-4-iodophenyl)amino]-6,8-dimethyl-2,4,7-trioxo-3,4,6,7-tetrahydropyrido[4,3-d]pyrimidin-1(2H)-yl}phenyl)acetamide]
